Laboratory results published in patent publication US20240207414A1, “DISULFIDE-BASED PRODRUG COMPOUND” (Ludwig-Maximilians-Universitat Munchen, priority 2021, published 2024).

What was measured:
HeLa cells = experiment: In vitro cell viability assay P10 (resazurin); type: cell-based; settings: Homo sapiens, 48 h, read-out: IC50 antiproliferation / cell viability
Protocol: Assay Conditions: Cells were cultured under standard conditions (Gao, L. et al. Cell Chemical Biology 2021, 28, 1-14. https://doi.org/10.1016/j.chembiol.2020.11.007), left to adhere for 24 h, then P10 was added from DMSO stock solution and adjusted to 1% vol DMSO. Cells were incubated under standard conditions for 48 h, then 0.20 volume equivalents of a solution of resazurin in PBS (0.15 mg/mL) were added and incubated for 3 hours, then fluorescence (ex 544 nm, em 590 nm) was detected on a fluorescence platereader. Cell viability (%) is calculated relative to a control experiment with no P10 added, from the fluorescence values.

[1] = tested on: 4T1 Balb/c mouse breast cancer cell line, orthotopic tumor; experiment: In vivo mouse tumor model assay P10
Text: Assay Conditions and Data Representation: Immunocompetent wildtype Balb/c mice were inoculated with 4T1 Balb/c mouse breast cancer cell line orthotopically in the mammary fat pad (2×10^5 cells) and tumor growth was monitored by caliper measurement. The day when all tumors had reached ca. 150 mm^3 was defined as Day 0; on this day the mice were randomised by tumor size into groups of minimum size 5 animals (mean tumor size ca. 200 mm^3), and treated. Treatments were chosen from 0.9% NaCl (“untreated”), the vascular disrupting agent combretastatin A-4 phosphate (CA4P) at 30 mg/kg administered in 100 μL NaCl (“VDA”), compound of the invention P10 at 4 mg/kg administered in 30 μL DMSO (“P10”), or a combination regime involving treatment with VDA and then 6 hours later with P10 (“VDA+P10”). All treatments were administered intraperitoneally (i.p.). CA4P was re-applied to groups “VDA” and […] once at day 7; no P10 treatment was re-applied to either “P10” or “VDA+P10” groups. Tumor volumes were measured as assay readout.

A549 cells = experiment: Cellular reduction assay P12-P16 (FIG. 6); type: cell-based, human; settings: 10 μM or 40 μM, 1% vol DMSO, cells under ordinary conditions
Protocol: Assay Conditions: A549 cells were cultured under standard conditions (Gao, L. et al. Cell Chemical Biology 2021, 28, 1-14. https://doi.org/10.1016/j.chembiol.2020.11.007), left to adhere for 24 h, then compounds were added to 10 μM or 40 μM with 1% vol DMSO. Fluorescence timecourse measurements were acquired as in the chemoreductant assay, with all conditions in triplicates.
Experimental Results and Discussion: F(t) is the raw fluorescence intensity signal increase in arbitrary units with the same detection settings the probes releasing the same cargo. […] This trend is irrespective of the applied concentration in cells and cellular increase is constant over time. This indicates, that P13-P16 are activated more selectively by specific enzymatic cascades (as e.g. Trx/TrxR), whereas P12 may be activated more unspecifically. Thus, compounds of the invention either have the possibility of being useful by giving selective cargo release in pathologically growing cells or cells under abnormal conditions (P13-P16), or offer novel opportunities of cellular delivery of appended cargoes with optimal response kinetics (P12).

Structure (SMILES) | IC50 (HeLa cells) | tumor growth (tumor volume), combination with VDA ([1]; CA4P (VDA) 30 mg/kg i.p., then 6 hours later P10 4 mg/kg i.p.) | primary tumor progression (tumor volume) ([1]; single treatment 4 mg/kg i.p., Balb/c mice, 4T1 tumor) | cargo release / activation inside cells (raw fluorescence F(t)) (A549 cells)
O=C(c1cc2cc(OCCCN3CCC3)ccc2[nH]1)N1C[C@@H](CCl)c2c1cc(OC(=O)N1CCC[C@@H]3CSSC[C@@H]31)c1ccccc21 (racemic) [Compound P10, (S)-3-(5-(3-(azetidin-1-yl)propoxy)-1H-indole-2-carbonyl)-1-(chloromethyl)-2,3-dihydro-1H-benzo[e]indol-5-yl (cis)-hexahydro-[1,2]dithiino[4,5-b]pyridine-1(2H)-carboxylate] | ~200 nM | still more significantly slows tumor growth | significantly slows primary tumor progression | 
COc1ccc2c(c1)Oc1cc(OC(=O)N3CCN[C@@H]4CSSC[C@H]43)ccc1C21OC(=O)c2ccccc21 (mixture of isomers) [Compound P12, 3′-methoxy-3-oxo-3H-spiro[isobenzofuran-1,9′-xanthen]-6′-yl-trans-hexahydro-[1,2]dithiino[4,5-b]pyrazine-1(2H)-carboxylate] |  |  |  | substantially releases its cargo inside cells cultured under ordinary conditions
